# Several values for one entry are separate records, joined by “and”; a condition that tells them apart may be missing. Identical values can stand only once. Marks after values point to notes of the source that are not given here.
# How the values were obtained:
# [1] = system: ischemic brain damage in rats; details: 60 mg/kg and 30 mg/kg, 3 and 7 hours after reperfusion; cited from earlier work
# liver and pancrea cells = experiment: Pro/antiapoptosis properties, electrophoresis of DNA fragments; assay type: in vivo; details: intact male Wistar rats; 50 mg/kg
# Method: The assessment of pro/antiapoptotosis properties of substances was carried in intact male rats of Wistar line. The test substance were administered for 2 weeks by means of a probe in aqueous suspension containing Tween-80 at a dose of 50 mg/kg of body weight. The animals were euthanized by cervical vertebrae translocation 24 hours after the experiment. The identification of apoptosis of liver and pancrea cells was performed using electrophoretic method. […] Cell necrosis conditioned the “smeared” nature of DNA migration zone. The luminescence band of intact DNA was in the starting area.
# The expression of apoptosis manifestations was assessed by registration of DNA fragments via electrophoresis.
# rats = experiment: Acute normobaric hypoxic hypoxia with hypercapnia (ANHHH), life duration; assay type: in vivo; details: preventive administration; SI-86 and SI-108 10 mg/kg iv, mexydol 100 mg/kg ip
# Method: The study of antihypoxic activity of 10 original derivatives of 3,2′-spiro-pyrrolo-2-oxindole was conducted on models of acute normobaric hypoxic hypoxia with hypercapnia (ANHHH) and acute asphyxia. ANHHH was modeled by means of rat arrangement into isolated pressure compartments (0.001 m^3). The observation conducted until the death of the animals. The antihypoxic activity was assessed by life duration (in minutes) in relation to the control taken as 100%, by the formula AA=tt/tk×100%, wherein AA—antihypoxic activity (%), tt—life duration of test animals, tc—life duration of control animals.
# (§1) The preliminary screening of test substances was performed on ANHHH model. All derivatives were administered in the same dose of 10 mg/kg […] (iv) 1 hour prior to pathological state modeling. […] The effectiveness of a leader compound was evaluated at doses 5; 10 and 15 mg/kg iv. Mexydol was chosen as a reference drug having antihypoxic action in combination with antioxidant and membrane protective activity, which is successfully used in patients with CVA and IM. Mexydol was administered intraperitoneally (ip) at a dose of 100 mg/kg according to similar scheme.
# [2] = system: rat heart bioelectrical activity; experiment: Acute asphyxia, duration of heart bioelectrical activity; assay type: in vivo, rats
# Method: Acute asphyxia was modeled in rats anesthetized with propofol (60 mg/kg) intraperitoneally (ip) by complete clamping the trachea at electrocardiogram (EGC) registration. The antihypoxic effect was evaluated by duration of heart bioelectric activity (HBA). This model allows to estimate the heart sensitivity to hypoxia. An isoelectric ECG line for 1 minute considered as HBA termination, the pint of HBA termination corresponded to the last QRS complex on the ECG. The calculation of […] activity was performed by the above formula considering a point of last QRS complex registration as a lifetime.
# as §1
# [3] = system: rats with intracerebral hemorrhage; experiment: Lethality of rats with intracerebral hemorrhage of average severity; assay type: in vivo
# Method: The chosen model allows to reproduce clinical pattern of […] and is adequate for clinical study of potential neuroprotective agents.
# As comparators the following drugs were used: mexydol (“Mexydol” UC Pharmasoft, Russia), 100 mg/kg; citicoline (“Somazina” Ferrer International, SA, Spain), 250 mg/kg; aktovegin (“Aktovegin”, Nycomed, Austria), 16 mg/kg pyracetam (“Pyracetam” Darnitsa, Ukraine), 400 mg/kg. According to the latest clinical guidelines regarding the treatment of patients with CVA approved by the Ministry of Health of Ukraine (Order No. 602 dated 3 Aug. 2012), all these drugs are allowed to be included into schemes for intensive patients therapy with CVA as neuroprotective agents. They were used at recommended doses for preclinical studies (McGrow C. P. Experimental Cerebral Infarction Effects of Pentobarbital in Mongolian Gerbils/C. P. McGrow//Arch. Neurol.-1977.-Vol. 34, No. 6.-P. 334-336). Experimental therapy of acute cerebral ischemia with SI-86 compound and comparator started 1 hour after IUD once a day for 21 days. […] Reference drugs were injected intraperitoneally (ip). Rats of control pathology group were injected by autoblood and as therapy 0.9% NaCI solution was administered calculated for 2 ml/kg iv.
# Pseudo-operated rats were exposed to all interventions (anesthesia, craniotomy) excluding autoblood administration that leveled traumatic impact of experimental conditions.
# (§2) Evaluation of the ability of animals to learn and memorize of aversive stimulus was examined in the test of conditioned response of passive avoidance (CRPA). The technique is based on innate rat instinct to limited shadowy space. The study in rats was conducted in two-compartment unit consisted of two sections—light and dark. An animal was arranged into light compartment, fixing latency time for entering into the dark compartment, wherein rat received current irritation and ran in the light compartment. CRPA retention was tested every other day under latency time change of rat entering into the dark compartment. Also the number of animals was noted not fully entered the dark chamber. Cerebroprotective efficiency criteria of studied compounds were also animal death term (days) and their mortality rate (in %).
# Quantitative data were processed using statistical StatPlus 2009 processing. The statistical significance of differences was assessed by Fisher's angular transformation (lethality outcome), also parametric t Student criterion were used in case of normal distribution of variation series, nonparametric W White criterion—in its absence.
# [4] = system: rats with intracerebral hemorrhage; experiment: Conditioned response of passive avoidance (CRPA) in rats with intracerebral hemorrhage; assay type: in vivo; details: 21st day, n = 15
# Method: (§3) Neuroprotective effect of 3,2′-spiro-pyrrolo-2-oxindole derivative (SI-86 compound) was studied on IUD model of moderate severity modeled under propofol anesthesia (60 mg/kg intraperitoneally (ip)) by autoblood administration into the brain internal capsule (stereotactic coordinates of the projection: H=7.0 mm, L=3.0 mm, A=1.5 mm from bregma) ([…]) (Method for reproduction of intracerebral hemorrhage in rats/O. K. Yarosh, S. V. Kyrychenko, S. P. Halimonchyk [et al.]//Circulation and hemostasis.-2005.-No. 1.-P. 77-81). The chosen model allows to reproduce clinical pattern of […] and is adequate for clinical study of potential neuroprotective agents.
# (§4) As comparators the following drugs were used: mexydol (“Mexydol” UC Pharmasoft, Russia), 100 mg/kg; citicoline (“Somazina” Ferrer International, SA, Spain), 250 mg/kg; aktovegin (“Aktovegin”, Nycomed, Austria), 16 mg/kg pyracetam (“Pyracetam” Darnitsa, Ukraine), 400 mg/kg. According to the latest clinical guidelines regarding the treatment of patients with CVA approved by the Ministry of Health of Ukraine (Order No. 602 dated 3 Aug. 2012), all these drugs are allowed to be included into schemes for intensive patients therapy with CVA as neuroprotective agents. They were used at recommended doses for preclinical studies (McGrow C. P. Experimental Cerebral Infarction Effects of Pentobarbital in Mongolian Gerbils/C. P. McGrow//Arch. Neurol.-1977.-Vol. 34, No. 6.-P. 334-336). Experimental therapy of acute cerebral ischemia with SI-86 compound and comparator started 1 hour after IUD once a day for 21 days. The SI-86 derivative was investigated in conventionally effective dose of 10 mg/kg […] (iv)-dose that according to the results of our previous study provides maximum antihypoxic activity of SI-86 compound. Reference drugs were injected intraperitoneally (ip). Rats of control pathology group were injected by autoblood and as therapy 0.9% NaCI solution was administered calculated for 2 ml/kg […].
# as §2
# [5] = system: rats with intracerebral hemorrhage; experiment: Neurological deficit (C. P. McGrow stroke-index scale) in rats with intracerebral hemorrhage; assay type: in vivo; details: n = 15
# Method: as §3, §4
# Neurological deficit in animals with acute CVA respectively in acute (4th day) and recovery (21 st day) periods was measured on C. P. McGrow stroke-index scale. The state severity was determined by amount of relevant points: to 3 points-mild, 3 to 7 points-average, above 7 points-severe degree. Pareses, paralyses of limbs, tremors, circus movement, ptoses, lateral positions, ability of rats to be maintained at the core of 15 cm diameter, rotating at the rate of 3 rpm were noted. The animals were tested daily by displaying the amount of points:
# one-sided semi-ptosis—0.5 points; one-sided ptosis—1 point; tremor—0.5 points; circus movements—0.5 points; pareses of limbs (for each limb)—1 point; paralyses of limbs (for each limb)—2 points; lateral position—3 points; disability to maintain on rotating rod during 4 minutes—3 points.
# [6] = 12 h, SI-86 10 mg/kg iv, mexydol 100, citocoline 250, actovegin 16, pyracetam 400 mg/kg
structure (smiles),measurement,setting,value
"Cc1c(Cl)cccc1S(=O)(=O)Nc1nc(CC(=O)N2CCN(C)CC2)cs1.Cl [BVT-2733, 3-chloro-2-methyl-N-(4-(2-(4-methylpiperazin-1-yl)-2-oxoethyl)thiazol-2-yl)benzenesulfonamide hydrochloride]",amount of ischemic brain damage,[1],reduced the amount of ischemic brain damage
"CCSCC[C@@H]1N[C@@]2(C(=O)Nc3ccccc32)[C@@H]2C(=O)N(c3ccc(C)cc3)C(=O)[C@H]12 [SI-34, 5′-(4-Methylphenyl)-3′-[2-(ethylthio)ethyl]-3a′,6a′-dihydro-2′H-spiro[indole-3, 1′-pyrrolo[3,4-c]pyrrol]-2,4′,6′(1H,3H′,5H′)-trione]",level of apoptosis,liver and pancrea cells,closed to that of control group
"CCSCC[C@@H]1N[C@@]2(C(=O)N(Cc3ccc(Cl)cc3)c3ccccc32)[C@@H]2C(=O)N(c3ccc(C)cc3)C(=O)[C@H]12 [SI-108, 1-(4-Chloro-benzyl)-3′-[2-(ethylthio)ethyl]-5′-(4-methylphenyl)-3a′,6a′-dihydro-2′H-spiro[indole-3,1′-pyrrolo[3,4-c]pyrrol]-2,4′,6′(1H,3′H,5′H)-trione]",increase of life duration in rats in relation to control,rats,28.6%
same,Antihypoxic activity,[2]; 10 mg/kg iv,−18.4%
same,Duration of heart bioelectrical activity,[2]; 10 mg/kg iv,9.5 ± 1.1 min
CCc1nc(C)ccc1O.O=C(O)CCC(=O)O [mexydol],"Lethality, %",[3]; [6],0/0%*^#
same,"Lethality, abs.",[3]; [6],0/0%*^#
same,"Lethality, abs.","[3]; 24 h, same doses",0/0%*^#
same,cerebroprotective protection,"[3]; 24 h observation, SI-86 10, mexydol 100, citicoline 250 mg/kg",100%
same,"Lethality, %","[3]; 48 h, same doses",7.9%
same,"Lethality, abs.","[3]; 48 h, same doses",3
same,"Lethality, %","[3]; 72 h, same doses",10.5%
same,"Lethality, abs.","[3]; 72 h, same doses",4
same,"Lethality, %","[3]; 96 h, same doses",13.2%
same,"Lethality, abs.","[3]; 96 h, same doses",5
same,reduction of mortality in rats at the end of the observation period relative to control,"[3]; within 4 days of therapy, same doses",17.2%
same,"Latent period for entrance into dark compartment, prior study","[4]; SI-86 10 mg/kg iv, mexydol 100, citocoline 250, actovegin 16, pyracetam 400 mg/kg ip",11.30 ± 0.47°*^#$ s
same,"Latent period for entrance into dark compartment, 24 hours after study",[4]; same doses,106.80 ± 2.77°*^#•$ s
same,"neurological deficit, average point under C. P. McGrow scale","[5]; day 4, SI-86 10 mg/kg iv, mexydol 100, citocoline 250, actovegin 16, pyracetam 400 mg/kg ip",4.30 ± 0.25°*^#•$ points
same,"neurological deficit, average point under C. P. McGrow scale","[5]; day 21, same doses",3.8 points and 3.80 ± 0.21°*^#•$ points
same,increase of life duration in rats in relation to control,rats,80.2%
same,Antihypoxic activity,[2]; 100 mg/kg ip,+50.9%
same,Duration of heart bioelectrical activity,[2]; 100 mg/kg ip,17.5 ± 0.5 min
